US9486506B2 (Novo Nordisk A/S, priority 2011, dated 2016)
Numbered stars: 1 amine (or outer) side, 2 acyl side, 3 side chain; on linkers, the order of the positions; unused ones are H or OH. Side chains are listed from the residue outwards. Peptide text beside a SMILES is read from it. * marks the point of attachment. C18 diacid = O=C(O)CCCCCCCCCCCCCCCCC(=O)*; γGlu = O=C(O)[C@H](CCC(=O)[*:2])N[*:1]; AEEA = NCCOCCOCC(=O)O

Molecular target: T1, glucagon receptor (Homo sapiens, UniProt P47871)
T1 construct: expressed in transfected cells
Experiment: Assay (I) Glucagon activity (cAMP biosensor, FLIPR)
Format: cell-based
Procedure: The cells (14000 per well) were incubated (37° C., 5% CO2) overnight in 384-well plates. Next day the cells were loaded with a calcium responsive dye that only distributed into the cytoplasm. Probenecid, an inhibitor of the organic anion transporter, was added to prevent the dye from leaving the cell. A PDE inhibitor was added to prevent formatted cAMP from being degraded. The plates were placed into a […] and the glucagon analogues were added. End point data were collected after 6 minutes. An increase in intracellular cAMP was proportional to an increased in calcium concentrations in the cytoplasm. When calcium was bound the dry a fluorescence signal was generated. EC50-values were calculated in Prism5.

T1 sequence (P47871 26-477): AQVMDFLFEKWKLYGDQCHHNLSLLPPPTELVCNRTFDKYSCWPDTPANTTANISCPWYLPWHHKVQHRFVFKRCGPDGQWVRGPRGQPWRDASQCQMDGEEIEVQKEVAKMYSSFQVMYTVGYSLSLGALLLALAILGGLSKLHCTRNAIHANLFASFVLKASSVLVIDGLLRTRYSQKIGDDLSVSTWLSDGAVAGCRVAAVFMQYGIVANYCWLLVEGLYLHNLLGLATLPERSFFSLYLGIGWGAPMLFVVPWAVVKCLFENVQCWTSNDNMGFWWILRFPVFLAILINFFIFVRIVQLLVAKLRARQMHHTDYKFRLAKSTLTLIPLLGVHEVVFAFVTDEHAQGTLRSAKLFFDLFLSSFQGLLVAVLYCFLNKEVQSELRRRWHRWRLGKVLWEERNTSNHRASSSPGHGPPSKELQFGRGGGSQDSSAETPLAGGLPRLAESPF

With `CC(C)C[C@H](NC(=O)[C@H](Cc1ccc(O)cc1)NC(=O)[C@H](CCCCN)NC(=O)[C@H](CO)NC(=O)[C@H](Cc1ccc(O)cc1)NC(=O)[C@H](CC(=O)O)NC(=O)[C@H](CO)NC(=O)[C@@H](NC(=O)[C@H](Cc1ccccc1)NC(=O)[C@@H](NC(=O)CNC(=O)[C@H](Cc1c[nH]cn1)NC(=O)[C@H](CO)NC(=O)[C@@H](N)Cc1c[nH]cn1)[C@@H](C)O)[C@@H](C)O)C(=O)N[C@@H](CC(=O)O)C(=O)N[C@@H](CO)C(=O)N[C@@H](CCCNC(=N)N)C(=O)N[C@@H](CCCNC(=N)N)C(=O)N[C@@H](C)C(=O)N[C@@H](CCCCN)C(=O)N[C@@H](CC(=O)O)C(=O)N[C@@H](Cc1ccccc1)C(=O)N[C@H](C(=O)N[C@@H](CCCCNC(=O)CC[C@H](NC(=O)CC[C@H](NC(=O)COCCOCCNC(=O)COCCOCCNC(=O)CC[C@H](NC(=O)CCCCCCCCCCCCCCCCC(=O)O)C(=O)O)C(=O)O)C(=O)O)C(=O)N[C@@H](Cc1c[nH]c2ccccc12)C(=O)N[C@@H](CC(C)C)C(=O)N[C@@H](CC(C)C)C(=O)N[C@@H](CO)C(=O)N[C@H](C(=O)O)[C@@H](C)O)C(C)C` [Example 3, N^ε24-[(4S)-4-carboxy-4-[[(4S)-4-carboxy-4-[[2-[2-[2-[[2-[2-[2-[[(4S)-4-carboxy-4-(17-carboxyheptadecanoylamino)butanoyl]amino]ethoxy]ethoxy]acetyl]amino]ethoxy]ethoxy]acetyl]amino]butanoyl]amino]butanoyl]-[His^3,Lys^20,Lys^24,Leu^27,Ser^28]-Glucagon] (H-HSHGTFTSDYSKYLDSRRAKDFVK([γGlu-γGlu-AEEA-AEEA-γGlu-C18 diacid])WLLST-OH) the EC50 was 0.249 nM.

`CC(C)C[C@H](NC(=O)[C@H](CC(=O)O)NC(=O)[C@H](CC(C)C)NC(=O)[C@H](Cc1ccc(O)cc1)NC(=O)[C@H](CCCNC(=N)N)NC(=O)[C@H](CO)NC(=O)[C@H](Cc1ccc(O)cc1)NC(=O)[C@H](CC(=O)O)NC(=O)[C@H](CO)NC(=O)[C@@H](NC(=O)[C@H](Cc1ccccc1)NC(=O)[C@@H](NC(=O)CNC(=O)[C@H](CCC(N)=O)NC(=O)[C@H](CO)NC(=O)[C@@H](N)Cc1c[nH]cn1)[C@@H](C)O)[C@@H](C)O)C(=O)N[C@@H](CCCNC(=N)N)C(=O)N[C@@H](CCCNC(=N)N)C(=O)N[C@@H](C)C(=O)N[C@@H](CCC(N)=O)C(=O)N[C@@H](CC(=O)O)C(=O)N[C@@H](Cc1ccccc1)C(=O)N[C@H](C(=O)N[C@@H](CCCCNC(=O)COCCOCCNC(=O)COCCOCCNC(=O)CC[C@H](NC(=O)CC[C@H](NC(=O)CC[C@H](NC(=O)CCCCCCCCCCCCCCCCC(=O)O)C(=O)O)C(=O)O)C(=O)O)C(=O)N[C@@H](Cc1c[nH]c2ccccc12)C(=O)N[C@@H](CC(C)C)C(=O)N[C@@H](CC(C)C)C(=O)N[C@@H](CO)C(=O)N[C@H](C(=O)O)[C@@H](C)O)C(C)C` [Example 28, N^ε24-[2-[2-[2-[[2-[2-[2-[[(4S)-4-carboxy-4-[[(4S)-4-carboxy-4-[[(4S)-4-carboxy-4-(17-carboxyheptadecanoylamino)butanoyl]amino]butanoyl]amino]butanoyl]amino]ethoxy]ethoxy]acetyl]amino]ethoxy]ethoxy]acetyl]-[Arg^12,Leu^16,Lys^24,Leu^27,Ser^28]-Glucagon] (H-HSQGTFTSDYSRYLDLRRAQDFVK([AEEA-AEEA-γGlu-γGlu-γGlu-C18 diacid])WLLST-OH) showed an EC50 of 0.1 nM.
